Data published in the CheMixHub ionic liquid set.
± gives the uncertainty stated by the source.

Assay: xn = mol fraction of the nth substance listed

CCCC[n+]1ccc(C)cc1.O=S(=O)([N-]S(=O)(=O)C(F)(F)F)C(F)(F)F + CCOS(=O)(=O)[O-].CC[n+]1ccn(C)c1
100 kPa
Settings | viscosity [mPa·s]
293.15 K, x2 = 0.1177 | 86.8 ± 2.6
293.15 K, x2 = 0.3341 | 116.8 ± 4.2
293.15 K, x2 = 0.558 | 145 ± 5.9
303.15 K, x2 = 0.558 | 86.5 ± 2.6
303.15 K, x2 = 0.7776 | 89.6 ± 2.7
313.15 K, x2 = 0.3341 | 46.2 ± 1.2
313.15 K, x2 = 0.6663 | 58.1 ± 1.5
313.15 K, x2 = 0.9487 | 53.1 ± 1.3
323.15 K, x2 = 0.6663 | 39.8 ± 1
323.15 K, x2 = 0.7776 | 39.6 ± 1
333.15 K, x2 = 0.1177 | 18.6 ± 0.5
333.15 K, x2 = 0.3341 | 23.1 ± 0.6
333.15 K, x2 = 0.558 | 27.4 ± 0.7
333.15 K, x2 = 0.6663 | 28.5 ± 0.7
343.15 K, x2 = 0.0475 | 13 ± 0.3
343.15 K, x2 = 0.1177 | 14 ± 0.4
343.15 K, x2 = 0.6663 | 21 ± 0.5
343.15 K, x2 = 0.7776 | 21 ± 0.5
343.15 K, x2 = 0.9487 | 19.9 ± 0.5
353.15 K, x2 = 0.0475 | 10.3 ± 0.3
353.15 K, x2 = 0.226 | 12.2 ± 0.3

CCCC[N+](CCCC)(CCCC)CCCC.[Cl-] + CC[C@H](C)[C@H](N)C(=O)O
electrical conductivity [S/m], 100 kPa
Settings | 313.15 K | 323.15 K | 333.15 K | 343.15 K | 353.15 K
x1 = 0.8889 | 0.0522 | 0.0655 | 0.0876 | 0.1 | 0.119
x1 = 0.9 | 0.0263 | 0.045 | 0.0615 | 0.0789 | 0.105
x1 = 0.9091 | 0.0364 | 0.0499 | 0.072 | 0.0843 | 0.111

CCCC[NH3+].O=[N+]([O-])[O-] + CC[NH3+].O=[N+]([O-])[O-]
electrical conductivity [S/m], 101 kPa, frequency 0.00293 MHz
Settings | 303.15 K | 308.15 K | 323.15 K
x2 = 0.25 | – | 0.88 | 1.38
x2 = 0.75 | 1.68 | – | –

101 kPa
Settings | viscosity [mPa·s]
303.15 K, x2 = 0.75 | 42.1
308.15 K, x2 = 0.25 | 56.1
323.15 K, x2 = 0.25 | 33.7
333.15 K, x2 = 0.25 | 25.2
338.15 K, x2 = 0.25 | 22
338.15 K, x2 = 0.75 | 15.5
343.15 K, x2 = 0.25 | 19.4
353.15 K, x2 = 0.25 | 15.4
353.15 K, x2 = 0.5 | 13.3

CS(C)=O + CC[NH+](CC)CC.O=P([O-])(O)O
101 kPa, x1 = 1
Settings | viscosity [mPa·s]
298.15 K | 1.99 ± 0.04
303.15 K | 1.8 ± 0.04
308.15 K | 1.65 ± 0.03

CS(C)=O + CC[n+]1ccn(C)c1.COS(=O)(=O)[O-]
100 kPa, x2 = 0
Settings | viscosity [mPa·s]
298.15 K | 1.99 ± 0.04
303.15 K | 1.8 ± 0.04
308.15 K | 1.65 ± 0.04
313.15 K | 1.54 ± 0.03

CC[n+]1ccn(C)c1.[Cl-] + CC[n+]1ccn(C)c1.F[B-](F)(F)F
Settings | viscosity [mPa·s]
293 K, 101 kPa, x1 = 0.2627 | 92.4 ± 3.8

C[N+]1(CCOCCOCC[N+]2(C)CCCC2)CCCC1.O=S(=O)([N-]S(=O)(=O)C(F)(F)F)C(F)(F)F.O=S(=O)([N-]S(=O)(=O)C(F)(F)F)C(F)(F)F + CC[n+]1ccn(C)c1.N#C[N-]C#N + O=S(=O)([N-]S(=O)(=O)C(F)(F)F)C(F)(F)F.[Li+]
electrical conductivity [S/m], 100 kPa
Settings | 298 K | 303 K | 313 K | 323 K | 333 K | 343 K
x1 = 0.1484, x2 = 0.7091 | 0.719 ± 0.029 | 0.844 ± 0.034 | 1.2 ± 0.048 | 1.49 ± 0.06 | 1.86 ± 0.074 | 2.18 ± 0.087
x1 = 0.1554, x2 = 0.7427 | 0.972 ± 0.039 | 1.17 ± 0.047 | 1.56 ± 0.062 | 1.97 ± 0.079 | 2.42 ± 0.097 | 2.85 ± 0.11
